The source made the active and inactive calls. No cut-off for these calls is given here.
How the values were obtained:
[1] = system: Salmonella typhimurium; assay: Genotoxicity in Salmonella typhimurium TA97a in presence of rat s9 fraction by Ames test; type: toxicity, organism-based; conditions: salmonella enterica subsp. enterica serovar typhimurium
[2] = Unbound plasma clearance in po dosed rat; type: ADME, organism-based; conditions: in vivo
[3] = system: Salmonella typhimurium; assay: Genotoxicity in Salmonella typhimurium TA97a by Ames test; type: toxicity, organism-based; conditions: salmonella enterica subsp. enterica serovar typhimurium
[4] = system: Rattus norvegicus; assay: Antiarthritic activity in collagen-induced arthritis rat model at 3 mg/kg, po administered qd; type: functional, organism-based
[5] = Oral bioavailability in rat; type: ADME, organism-based; conditions: in vivo
[6] = target: T1, Tyrosine-protein kinase SYK (Homo sapiens, UniProt P43405); assay: Inhibition of GST-tagged full length human SYK (1 to 635 end residues) expressed in baculovirus expression system at 10 uM preincubated for 10 mins followed by Blk/Lyntide substrate and ATP addition measured after 45 mins TR-FRET assay relative to control
[7] = target: T1, Tyrosine-protein kinase SYK; assay: Inhibition of GST-tagged full length human SYK (1 to 635 end residues) expressed in baculovirus expression system preincubated for 10 mins followed by Blk/Lyntide substrate and ATP addition measured after 45 mins TR-FRET assay

Structure (SMILES) | Activity [1] | CL free [2] [mL/min/kg] | also measured
C[C@H](N)CNc1cnc(C(N)=O)c(-c2cnn(C)c2)n1 | Non-Toxic |  | 
COc1cccc2[nH]c(-c3nc(N[C@@H]4CCOC[C@@H]4N)cnc3C(N)=O)cc12 | Non-Toxic | 100 | 
C[C@H](N)CNc1cnc(C(N)=O)c(-c2cc3ccccc3[nH]2)n1 | Non-Toxic |  | 
Cc1cc(C)nc(Nc2cc(N[C@@H]3CCCC[C@@H]3N)cnc2C(N)=O)c1 |  | 710 | Activity [3]: Toxic; Activity [4]: Active
C[C@H](N)CNc1cnc(C(N)=O)c(-c2cc3ccccc3o2)n1 | Non-Toxic |  | 
NC(=O)c1ncc(N[C@@H]2CCCC[C@@H]2N)nc1-c1cc2ccccc2[nH]1 | Non-Toxic | 255 | bioavailability [5]: 19%
NC(=O)c1ncc(N[C@@H]2CCCC[C@@H]2N)cc1C#Cc1ccccc1 | Non-Toxic |  | 
NC(=O)c1ncc(N[C@@H]2CCCC[C@@H]2N)cc1/C=C/c1ccccc1 | Non-Toxic |  | 
Cn1cc(-c2cc(N[C@@H]3CCCC[C@@H]3N)cnc2C(N)=O)cn1 | Non-Toxic |  | inhibition [6]: 9%; IC50 [7]: > 10 µM
NC(=O)c1ncc(N[C@@H]2CCCC[C@@H]2N)cc1COc1ccccc1 | Non-Toxic |  | 

From ChEMBL document CHEMBL3864189, “Carboxamide Spleen Tyrosine Kinase (Syk) Inhibitors: Leveraging Ground State Interactions To Accelerate Optimization” (ACS Med Chem Lett, 2016)
